Results from patent US7812220B2, “Engineering β-ketoacyl ACP synthase for novel substrate specificity” (Calgene LLC, priority 1999, dated 2010).

How the values were obtained:
[1] = biological target: fatty acid synthase from Saccharomyces cerevisiae (Saccharomyces cerevisiae, UniProt P19097); conditions: among chain length analogues maintaining the double bond positions; cited from earlier work
KASII = conditions: in comparison with cerulenin; cited from earlier work
E. coli strain M15/pREP4 = assay: Effect of expression of KAS II mutants on the fatty acid composition of E. coli (GC FAME); type: cell-based; conditions: for accumulation of 18:0: IPTG induced 2 hours; for long chain fatty acid accumulation due to L111A and F133A: in combination mutants
Experimental: The mutant KAS II genes cloned behind an IPTG inducible T5 promoter (pQE30 vector, Qiagen) were transformed into E. coli strain M15/pREP4. E. coli M15/pREP4 strains containing no vector (−Vec), vector without insert (+Vec), or vectors expression wild-type KAS I or II or single or multiple engineered forms of KASII were grown to mid-log phase in LB media at 30° C. Expression was induced for 2 hours with IPTG (0.75 mM), cells were harvested, lyophilzed, and the lipids were extracted into toluene and derivatized by sodium methoxide and analyzed for fatty acid content by GC FAME analysis as described in Dehesh, et al. (1998) Plant J. 15:383-390.

Chain of fatty acid synthase from Saccharomyces cerevisiae (P19097 whole entry): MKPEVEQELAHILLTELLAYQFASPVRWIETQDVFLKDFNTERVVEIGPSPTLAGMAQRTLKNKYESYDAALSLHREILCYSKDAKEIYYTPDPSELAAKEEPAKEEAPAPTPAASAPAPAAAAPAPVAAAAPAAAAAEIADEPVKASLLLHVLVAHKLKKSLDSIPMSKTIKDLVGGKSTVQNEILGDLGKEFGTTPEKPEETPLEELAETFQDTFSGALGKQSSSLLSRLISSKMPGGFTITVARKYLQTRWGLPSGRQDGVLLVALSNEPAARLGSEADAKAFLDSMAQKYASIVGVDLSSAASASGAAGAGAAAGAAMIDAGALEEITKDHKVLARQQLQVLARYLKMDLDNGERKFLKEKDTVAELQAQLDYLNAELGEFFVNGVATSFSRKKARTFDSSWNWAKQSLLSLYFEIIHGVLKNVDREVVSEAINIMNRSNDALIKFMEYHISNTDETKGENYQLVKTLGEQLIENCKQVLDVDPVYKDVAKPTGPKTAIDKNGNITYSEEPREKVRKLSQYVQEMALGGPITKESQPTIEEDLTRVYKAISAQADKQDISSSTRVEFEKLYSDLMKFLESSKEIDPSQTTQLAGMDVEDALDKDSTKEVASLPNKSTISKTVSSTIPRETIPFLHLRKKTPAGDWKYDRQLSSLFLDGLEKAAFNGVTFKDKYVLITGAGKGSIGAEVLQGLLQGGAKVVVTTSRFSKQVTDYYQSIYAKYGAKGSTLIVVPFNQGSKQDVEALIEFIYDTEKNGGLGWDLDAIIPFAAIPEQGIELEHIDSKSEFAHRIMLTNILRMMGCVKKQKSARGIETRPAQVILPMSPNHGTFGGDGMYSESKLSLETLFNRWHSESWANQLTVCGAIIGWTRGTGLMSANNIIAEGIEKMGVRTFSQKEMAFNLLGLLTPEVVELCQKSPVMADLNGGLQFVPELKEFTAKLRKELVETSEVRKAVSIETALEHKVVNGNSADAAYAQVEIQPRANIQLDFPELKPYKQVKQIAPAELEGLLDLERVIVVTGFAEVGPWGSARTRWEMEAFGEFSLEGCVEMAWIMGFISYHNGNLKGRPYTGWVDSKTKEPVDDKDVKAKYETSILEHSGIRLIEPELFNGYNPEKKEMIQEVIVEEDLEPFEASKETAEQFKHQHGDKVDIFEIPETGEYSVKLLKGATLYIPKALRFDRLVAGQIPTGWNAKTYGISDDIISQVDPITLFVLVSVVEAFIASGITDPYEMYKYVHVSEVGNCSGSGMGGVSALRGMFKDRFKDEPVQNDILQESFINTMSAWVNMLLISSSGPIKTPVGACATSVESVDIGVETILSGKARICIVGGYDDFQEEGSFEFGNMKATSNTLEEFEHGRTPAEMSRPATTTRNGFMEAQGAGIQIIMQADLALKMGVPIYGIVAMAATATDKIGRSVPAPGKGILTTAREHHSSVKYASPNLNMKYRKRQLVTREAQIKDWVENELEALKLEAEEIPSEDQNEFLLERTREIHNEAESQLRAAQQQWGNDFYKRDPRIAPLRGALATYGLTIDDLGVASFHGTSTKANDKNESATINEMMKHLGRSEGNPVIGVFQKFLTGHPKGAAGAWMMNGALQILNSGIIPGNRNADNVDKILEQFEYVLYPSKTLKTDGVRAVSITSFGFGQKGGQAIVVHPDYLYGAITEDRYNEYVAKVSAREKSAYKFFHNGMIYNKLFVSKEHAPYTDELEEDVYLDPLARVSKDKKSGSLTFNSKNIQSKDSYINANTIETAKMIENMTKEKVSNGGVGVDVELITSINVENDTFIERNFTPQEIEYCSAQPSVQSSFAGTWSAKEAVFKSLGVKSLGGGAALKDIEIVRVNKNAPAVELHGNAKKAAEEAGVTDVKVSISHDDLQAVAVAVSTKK
Chain of fatty acid synthase from Saccharomyces cerevisiae (P07149 whole entry partner): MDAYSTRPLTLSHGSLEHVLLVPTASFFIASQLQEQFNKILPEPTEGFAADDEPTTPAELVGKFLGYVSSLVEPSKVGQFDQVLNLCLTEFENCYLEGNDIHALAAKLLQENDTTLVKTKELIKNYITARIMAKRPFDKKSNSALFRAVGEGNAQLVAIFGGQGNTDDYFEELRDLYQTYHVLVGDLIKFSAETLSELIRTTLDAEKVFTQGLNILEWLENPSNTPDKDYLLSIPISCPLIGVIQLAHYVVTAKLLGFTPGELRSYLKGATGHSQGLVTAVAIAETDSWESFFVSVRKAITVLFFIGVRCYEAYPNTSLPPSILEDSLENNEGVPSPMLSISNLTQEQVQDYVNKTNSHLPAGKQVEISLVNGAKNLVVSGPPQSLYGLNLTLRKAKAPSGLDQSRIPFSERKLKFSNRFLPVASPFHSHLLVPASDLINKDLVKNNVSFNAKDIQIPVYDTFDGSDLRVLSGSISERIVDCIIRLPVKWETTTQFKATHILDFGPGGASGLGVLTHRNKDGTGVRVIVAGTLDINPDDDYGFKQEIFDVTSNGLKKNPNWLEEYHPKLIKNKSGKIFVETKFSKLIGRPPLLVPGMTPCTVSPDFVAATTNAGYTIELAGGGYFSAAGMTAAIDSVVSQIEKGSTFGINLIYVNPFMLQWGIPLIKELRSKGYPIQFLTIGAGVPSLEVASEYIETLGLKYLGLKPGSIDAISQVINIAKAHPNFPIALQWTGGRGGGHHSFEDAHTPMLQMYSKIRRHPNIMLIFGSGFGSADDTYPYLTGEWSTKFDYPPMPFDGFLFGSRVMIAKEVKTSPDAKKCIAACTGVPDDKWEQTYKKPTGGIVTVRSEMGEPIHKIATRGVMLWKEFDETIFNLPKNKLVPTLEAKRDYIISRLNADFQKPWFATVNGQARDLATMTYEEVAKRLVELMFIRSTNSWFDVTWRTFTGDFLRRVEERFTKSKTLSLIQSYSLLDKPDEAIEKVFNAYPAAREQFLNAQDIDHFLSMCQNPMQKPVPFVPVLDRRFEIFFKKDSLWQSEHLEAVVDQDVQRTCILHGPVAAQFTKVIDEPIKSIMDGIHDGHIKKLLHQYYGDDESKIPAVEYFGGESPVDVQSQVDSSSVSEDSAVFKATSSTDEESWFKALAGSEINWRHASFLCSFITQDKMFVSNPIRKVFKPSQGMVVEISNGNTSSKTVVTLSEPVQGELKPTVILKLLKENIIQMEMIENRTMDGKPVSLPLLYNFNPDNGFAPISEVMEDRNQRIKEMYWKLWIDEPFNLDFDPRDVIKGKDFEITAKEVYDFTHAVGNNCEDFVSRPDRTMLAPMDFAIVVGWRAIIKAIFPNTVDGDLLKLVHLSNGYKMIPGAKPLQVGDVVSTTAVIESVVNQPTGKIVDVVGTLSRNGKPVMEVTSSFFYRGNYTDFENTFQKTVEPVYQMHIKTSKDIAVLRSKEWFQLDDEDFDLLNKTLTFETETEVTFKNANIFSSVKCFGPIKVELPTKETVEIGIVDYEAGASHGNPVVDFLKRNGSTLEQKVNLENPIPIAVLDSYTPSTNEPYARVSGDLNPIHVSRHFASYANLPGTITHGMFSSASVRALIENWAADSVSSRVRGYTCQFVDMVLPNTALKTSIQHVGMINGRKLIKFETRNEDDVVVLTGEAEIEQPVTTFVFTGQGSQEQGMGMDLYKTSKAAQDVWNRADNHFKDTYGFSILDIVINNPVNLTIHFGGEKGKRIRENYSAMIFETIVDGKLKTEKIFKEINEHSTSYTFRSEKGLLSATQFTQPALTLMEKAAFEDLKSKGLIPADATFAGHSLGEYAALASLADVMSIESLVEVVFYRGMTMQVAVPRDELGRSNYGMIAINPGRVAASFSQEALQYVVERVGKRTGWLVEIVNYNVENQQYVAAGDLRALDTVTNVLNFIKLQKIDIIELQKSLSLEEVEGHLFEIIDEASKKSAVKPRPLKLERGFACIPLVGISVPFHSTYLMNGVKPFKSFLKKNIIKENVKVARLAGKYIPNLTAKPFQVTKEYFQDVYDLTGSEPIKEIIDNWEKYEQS

## C/C=C/C/C=C/CCC(=O)[C@H]1O[C@H]1C(N)=O [Cerulenin, cerulenin]
[1]
  inhibitory activity: highest inhibitory activity

## CCCCCCCCC(=O)[C@H]1O[C@H]1C(N)=O [tetrahydrocerulenin]
KASII
  inhibitory activity, less than cerulenin: more than 2 orders of magnitude

## F133A: E. coli KAS II protein with F133A mutation
E. coli strain M15/pREP4; FIG. 3
  accumulation of 18:0: 7%

## I108A
E. coli strain M15/pREP4
  long chain fatty acid accumulation due to L111A and F133A: decrease the long chain fatty acid accumulation

## I114A
E. coli strain M15/pREP4
  long chain fatty acid accumulation due to L111A and F133A: decrease the long chain fatty acid accumulation

## L111A: E. coli KAS II protein with L111A mutation
E. coli strain M15/pREP4; FIG. 3
  accumulation of 18:0: 13%

B1: L197: E. coli KAS II protein with L197A mutation (protein, UniProt P0AAI5 2-413, looked up, variant L197A)
3-oxoacyl-[acyl-carrier-protei …: SKRRVVVTGLGMLSPVGNTVESTWKALLAGQSGISLIDHFDTSAYATKFAGLVKDFNCEDIISRKEQRKMDAFIQYGIVAGVQAMQDSGLEITEENATRIGAAIGSGIGGLGLIEENHTSLMNGGPRKISPFFVPSTIVNMVAGHLTIMYGLRGPSISIATACTSGVHNIGHAARIIAYGDADVMVAGGAEKASTPAGVGGFGAARALSTRNDNPQAASRPWDKERDGFVLGDGAGMLVLEEYEHAKKRGAKIYAELVGFGMSSDAYHMTSPPENGAGAALAMANALRDAGIEASQIGYVNAHGTSTPAGDKAEAQAVKTIFGEAASRVLVSSTKSMTGHLLGAAGAVESIYSILALRDQAVPPTINLDNPDEGCDLDFVPHEARQVSGMEYTLCNSFGFGGTNGSLIFKKI
E. coli strain M15/pREP4; FIG. 3
  accumulation of 18:0: 4%

B2: KAS II/L111A-F133A (protein, UniProt P0AAI5 2-413, looked up, variant L111A F133A)
3-oxoacyl-[acyl-carrier-protei …: SKRRVVVTGLGMLSPVGNTVESTWKALLAGQSGISLIDHFDTSAYATKFAGLVKDFNCEDIISRKEQRKMDAFIQYGIVAGVQAMQDSGLEITEENATRIGAAIGSGIGGAGLIEENHTSLMNGGPRKISPFAVPSTIVNMVAGHLTIMYGLRGPSISIATACTSGVHNIGHAARIIAYGDADVMVAGGAEKASTPLGVGGFGAARALSTRNDNPQAASRPWDKERDGFVLGDGAGMLVLEEYEHAKKRGAKIYAELVGFGMSSDAYHMTSPPENGAGAALAMANALRDAGIEASQIGYVNAHGTSTPAGDKAEAQAVKTIFGEAASRVLVSSTKSMTGHLLGAAGAVESIYSILALRDQAVPPTINLDNPDEGCDLDFVPHEARQVSGMEYTLCNSFGFGGTNGSLIFKKI
E. coli strain M15/pREP4; FIG. 3
  level of 20:0: 2%
  level of 20:1: 4%
